Reference: US8785467B2, “Alkoxy pyrimidine PDE10 inhibitors” (Merck Sharp & Dohme Corp., priority 2010, dated 2014)
pKi: −log10 of the molar value.

Target: human PDE10A2 (Homo sapiens (Human), UniProt Q9Y233)
Test: PDE10 fluorescence polarization (IMAP FP) inhibition assay
Type: biochemical
Details: human PDE10A2 from transfected AD293 cell lysate, FAM-labeled cAMP 50 nM, room temperature; read-out: PDE10A Ki
Procedure: The activity of the compounds in accordance with the present invention as PDE10 inhibitors may be readily determined without undue experimentation using a fluorescence polarization (FP) methodology that is well known in the art (Huang, W., et al., J. Biomol Screen, 2002, 7: 215).
In a typical experiment the PDE10 inhibitory activity of the compounds of the present invention was determined in accordance with the following experimental method. PDE10A2 was amplified from human fetal brain cDNA (Clontech, Mountain View, Calif.) using a forward primer corresponding to nucleotides 56-77 of human PDE10A2 (Accession No. AF127480, Genbank Identifier 4894716), containing a Kozak consensus sequence, and a reverse primer corresponding to nucleotides 2406-2413 of human PDE10A2 (Accession No. AF 127480, Genbank Identifier 4894716). Amplification with Easy-A polymerase (Stratagene, La Jolla, Calif.) was 95° C. for 2 minutes followed by thirty three cycles of 95° C. for 40 seconds, 55° C. for 30 seconds, and 72° C. for 2 minutes 48 seconds. Final extension was 72° C. for 7 minutes. The PCR product was TA cloned into pcDNA3.2-TOPO (Invitrogen, Carlsbad, Calif.) according to standard protocol. AD293 cells with 70-80% confluency were transiently transfected with human PDE10A2/pcDNA3.2-TOPO using Lipofectamine 2000 according to manufacturer specifications (Invitrogen, Carlsbad, Calif.). Cells were harvested 48 hours post-transfection and lysed by sonication (setting 3, 10×5 sec pulses) in a buffer containing 20 mM HEPES, 1 mM EDTA and protease inhibitor cocktail (Roche). Lysate was collected by centrifugation at 75,000×g for 20 minutes. Supernatant containing the cytoplasmic fraction was used for evaluation of PDE10A2 activity. The fluorescence polarization assay for cyclic nucleotide phosphodiesterases was performed using an IMAP® FP kit supplied by Molecular Devices, Sunnyvale, Calif. (product #R8139). IMAP® technology has been applied previously to phosphodiesterase assays (Huang, W., et al., J. Biomol Screen, 2002, 7: 215). Assays were performed at room temperature in 384-well microtiter plates with an incubation volume of 20.2 μL. Solutions of test compounds were prepared in DMSO and serially diluted with DMSO to yield 8 μL of each of 10 solutions differing by 3-fold in concentration, at 32 serial dilutions per plate. 100% inhibition is determined using a known PDE10 inhibitor, which can be any compound that is present at 5,000 times its Ki value in the assay described as follows, such as papaverine (see Siuciak, et al. Neuropharmacology (2006) 51:386-396; Becker, et al. Behav Brain Res (2008) 186(2):155-60; Threlfell, et al., J Pharmacol Exp Ther (2009) 328(3):785-795), 2-{4-[pyridin-4-yl-1-(2,2,2-trifluoroethyl)-1H-pyrazol-3-yl]phenoxymethyl}quinoline succinic acid or 2-[4-(1-methyl-4-pyridin-4-yl-1H-pyrazol-3-yl)-phenoxymethyl]quinoline succinic acid (see Schmidt, et al. J Pharmacol Exp Ther (2008) 325:681-690; Threlfell, et al., J Pharmacol Exp Ther (2009) 328(3): 785-795). 0% of inhibition is determined by using DMSO (1% final concentrations).
A Labcyte Echo 555 (Labcyte, Sunnyvale, Calif.) is used to dispense 200 nL from each well of the titration plate to the 384 well assay plate. A solution of enzyme ( 1/1600 dilution from aliquots; sufficient to produce 20% substrate conversion) and a separate solution of FAM-labeled cAMP PDE from Molecular Devices (product #R7506), at a final concentration of 50 nM are made in the assay buffer (10 mM Tris HCl, pH 7.2, 10 mM MgCl2, 0.05% NaN3 0.01% Tween-20, and 1 mM DTT). The enzyme and the substrate are then added to the assay plates in two consecutive additions of 10 μL, and then shaken to mix. The reaction is allowed to proceed at room temperature for 30 minutes. A binding solution is then made from the kit components, comprised of 80% Solution A, 20% Solution B and binding reagent at a volume of 1/600 the total binding solution. […]

Sequence of human PDE10A2 (Q9Y233 267-1055): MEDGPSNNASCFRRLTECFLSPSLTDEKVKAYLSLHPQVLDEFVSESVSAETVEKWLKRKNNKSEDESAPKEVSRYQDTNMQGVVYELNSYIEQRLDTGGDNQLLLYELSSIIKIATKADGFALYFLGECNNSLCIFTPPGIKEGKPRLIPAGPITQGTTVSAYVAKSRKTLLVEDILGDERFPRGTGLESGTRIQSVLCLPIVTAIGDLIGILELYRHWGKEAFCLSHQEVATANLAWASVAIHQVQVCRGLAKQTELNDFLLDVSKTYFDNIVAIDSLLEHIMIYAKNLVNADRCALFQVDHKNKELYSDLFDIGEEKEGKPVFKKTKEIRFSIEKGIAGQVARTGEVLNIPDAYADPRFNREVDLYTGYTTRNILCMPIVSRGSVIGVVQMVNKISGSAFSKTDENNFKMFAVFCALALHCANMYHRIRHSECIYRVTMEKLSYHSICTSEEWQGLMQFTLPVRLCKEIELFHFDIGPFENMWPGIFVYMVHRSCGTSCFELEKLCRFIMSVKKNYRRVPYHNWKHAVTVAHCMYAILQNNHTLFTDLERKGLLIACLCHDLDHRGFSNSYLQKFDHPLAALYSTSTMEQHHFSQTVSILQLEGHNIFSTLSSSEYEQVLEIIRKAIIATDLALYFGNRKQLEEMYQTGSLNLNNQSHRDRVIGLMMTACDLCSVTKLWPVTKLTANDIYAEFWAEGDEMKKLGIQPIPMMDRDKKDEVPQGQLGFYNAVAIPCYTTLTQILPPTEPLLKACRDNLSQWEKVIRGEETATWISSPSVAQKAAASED

Cc1cc(CNc2nc(OC[C@H]3C[C@@H]3c3ccc4ncccc4n3)nc(Cl)c2C)n(C)n1 [Compound 1-51, 2-(((1S,2S)-2-(1,5-naphthyridin-2-yl)cyclopropyl)methoxy)-6-chloro-N-((1,3-dimethyl-1H-pyrazol-5-yl)methyl)-5-methylpyrimidin-4-amine]
pKi: 11.49

Cc1nc(C)c(CNc2nc(OCCCc3nc4ccccc4[nH]3)nc(Cl)c2C)s1 [Compound 1-27, 2-[3-(1H-benzimidazol-2-yl)propoxy]-6-chloro-N-[(2,4-dimethyl-1,3-thiazol-5-yl)methyl]-5-methylpyrimidin-4-amine]
pKi: 10.64

Cc1nc(C)c(CNc2nc(OCCOc3ccc4cccnc4n3)nc(Cl)c2C)s1 [Compound 1-32, 6-chloro-N-[(2,4-dimethyl-1,3-thiazol-5-yl)methyl]-5-methyl-2-[2-(1,8-naphthyridin-2-yloxy)ethoxy]pyrimidin-4-amine]
pKi: 10.40

CSc1nc(OC[C@H]2C[C@@H]2c2ccccn2)nc(NCc2cnn(C)c2)c1C (stereo in doubt) [Compound 1-43, 5-methyl-N-((1-methyl-1H-pyrazol-4-yl)methyl)-6-(methylthio)-2-((2-(pyridin-2-yl)cyclopropyl)methoxy)-pyrimidin-4-amine]
pKi: 9.77

COc1ccc([C@H]2C[C@@H]2COc2nc(Cl)c(C)c(NCc3cnn(C)n3)n2)nc1 [Compound 1-50]
pKi: 9.11

Cc1nc(C)c(CNc2nc(OCCCc3ccc4ccccc4n3)nc(Cl)c2C)s1 [Compound 1-29, 6-chloro-N-[(2,4-dimethyl-1,3-thiazol-5-yl)methyl]-5-methyl-2-(3-quinolin-2-ylpropoxy)pyrimidin-4-amine]
pKi: 11.10

Cc1nc(C)c(CNc2nc(OC[C@H]3C[C@@H]3c3ccccn3)nc(-c3ncco3)c2C)s1 (stereo in doubt) [Compound 1-46, N-((2,4-dimethylthiazol-5-yl)methyl)-5-methyl-6-(oxazol-2-yl)-2-((2-(pyridin-2-yl)cyclopropyl)methoxy)-pyrimidin-4-amine]
pKi: 8.19

Cc1c(NCc2cnn(C)c2)nc(OC[C@H]2C[C@@H]2c2ccccn2)nc1N(C)C (stereo in doubt) [Compound 1-44, N4,N4,5-trimethyl-N6-((1-methyl-1H-pyrazol-4-yl)methyl)-2-((2-(pyridin-2-yl)cyclopropyl)methoxy)pyrimidine-4,6-diamine]
pKi: 7.28

Cc1nc(C)c(CNc2nc(OC[C@H]3C[C@@H]3c3ccc4ncccc4n3)ncc2C)s1 [Compound 1-45, 2-(((1S,2S)-2-(1,5-naphthyridin-2-yl)cyclopropyl)methoxy)-N-((2,4-dimethylthiazol-5-yl)methyl)-5-methylpyrimidin-4-amine]
pKi: 10.24

Cc1nc(CNc2nc(OC[C@H]3C[C@@H]3c3ccc4ncccc4n3)nc(Cl)c2C)n(C)n1 [Compound 1-49, 2-(((1S,2S)-2-(1,5-naphthyridin-2-yl)cyclopropyl)methoxy)-6-chloro-N-((1,3-dimethyl-1H-1,2,4-triazol-5-yl)methyl)-5-methylpyrimidin-4-amine]
pKi: 8.66

Cn1cc(CNc2cc(C#N)nc(OC[C@H]3C[C@@H]3c3ccccn3)n2)cn1 (stereo in doubt) [Compound 1-41, 6-((1-methyl-1H-pyrazol-4-yl)methylamino)-2-((2-(pyridin-2-yl)cyclopropyl)methoxy)pyrimidin-4-carbonitrile]
pKi: 7.46

Cc1nc(C)c(CNc2nc(OC[C@H]3C[C@@H]3c3ccccn3)nc(Cl)c2C)s1 (stereo in doubt) [Compound 1-20, 6-chloro-N-[(2,4-dimethyl-1,3-thiazol-5-yl)methyl]-5-methyl-2-{[2-pyridin-2-ylcyclopropyl]methoxy}pyrimidin-4-amine]
pKi: 10.72

Cc1nc(C)c(CNc2nc(OC[C@H]3C[C@@H]3c3ccc4ncccc4n3)nc(Cl)c2C)o1 [Compound 1-48, 2-(((1S,2S)-2-(1,5-naphthyridin-2-yl)cyclopropyl)methoxy)-6-chloro-N-((2,4-dimethyloxazol-5-yl)methyl)-5-methylpyrimidin-4-amine]
pKi: 9.31

Cc1nc(C)c(CNc2nc(OCCc3ccccn3)nc(C#N)c2C)s1 [Compound 1-42, 6-((2,4-dimethylthiazol-5-yl)methylamino)-5-methyl-2-(2-(pyridin-2-yl)ethoxy)pyrimidine-4-carbonitrile]
pKi: 7.00

Cc1c(Cl)nc(OCCCc2ccc3ncccc3n2)nc1NCc1cnn(C)c1 [Compound 1-21, 6-chloro-5-methyl-N-[(1-methyl-1H-pyrazol-4-yl)methyl]-2-[3-(1,5-naphthyridin-2-yl)propoxy]pyrimidin-4-amine]
pKi: 8.68

Cc1c(Cl)nc(OC[C@@H]2C[C@H]2c2ccccn2)nc1NCc1cnn(C)c1 (stereo in doubt) [Compound 1-39, 6-chloro-5-methyl-N-[(1-methyl-1H-pyrazol-4-yl)methyl]-2-{[2-(pyridin-2-yl)cyclopropyl]methoxy}pyrimidin-4-amine]
pKi: 9.36

Cc1c(Cl)nc(OC[C@H]2C[C@@H]2c2ccc3ncccc3n2)nc1NCc1nc(C)n(C)n1 [Compound 1-47, 2-(((1S,2S)-2-(1,5-naphthyridin-2-yl)cyclopropyl)methoxy)-6-chloro-N-((1,5-dimethyl-1H-1,2,4-triazol-3-yl)methyl)-5-methylpyrimidin-4-amine]
pKi: 8.09
